Molecules are shown by their SMILES.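 Growth conditions: 96-well plates. Treatment: test compound, 48 hours, 5 concentrations. Analysis: linear interpolation between bracketing concentrations; unreached endpoints set to highest concentration. TGI marks complete inhibition of growth.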

What all share (experiment): inhibition of tumour cell growth, NCI panel, 48 h
Assay [1] has as its system 786-0 renal.
The subject of assay [2] is ACHN renal.
The subject of assay [3] is CAKI-1 renal.
The subject of assay [4] is EKVX NSCLC.
The test system of assay [5] is HCC-2998 colon.
In assay [6] the test system is HOP-92 NSCLC.
For assay [7], the system named is IGROV1 ovarian.
The test system of assay [8] is MCF7 breast.
The subject of assay [9] is MDA-MB-435.
The test system of assay [10] is MOLT-4 leukemia.
Assay [11] deals with NCI-H460 lung.
Assay [12] relates to NCI/ADR-RES ovarian.
Assay [13] deals with RXF 393 renal.
For assay [14], the system named is SK-OV-3 ovarian.
The test system of assay [15] is SNB-19 CNS.
The test system of assay [16] is SW-620 colon.
For assay [17], the system named is T-47D breast.
The test system of assay [18] is UACC-257 melanoma.
For assay [19], the system named is SF-539 CNS.

In the case of `CCOC(=O)/C(C#N)=C/c1ccc2c(-c3c(OCC)ccc4cc(/C=C(\C#N)C(=O)OCC)ccc34)c(OCC)ccc2c1`, the TGI in [1], in assay [2], in assay [3], in assay [4], in assay [5] and in assay [6] was > 100 µM each time. The TGI in [7], in assay [8], in assay [9], in assay [10], in [11] and in [12] was > 100 µM each time. Besides, the TGI in assay [13], in assay [14], in [15], in assay [16], in assay [17] and in assay [18] was > 100 µM each time.
With `CC(=O)OCC1OC(On2ccccc2=S)C(OC(C)=O)C(OC(C)=O)C1OC(C)=O` (stereo not drawn), the TGI in assay [1], in assay [2], in assay [3], in [4], in [5] and in assay [6] was > 100 µM each time. Besides, the TGI in assay [7], in assay [8], in assay [9], in assay [10], in assay [11] and in assay [12] was > 100 µM throughout. For the same compound, the TGI in [13], in assay [19], in assay [14], in [15], in assay [16] and in assay [17] was > 100 µM in each case. Moreover, the TGI in assay [18] is > 100 µM.
`CCOC(=O)C1C(=O)CC(O)(OCC)C(C(=O)OCC)C1c1ccc(OC)cc1` (stereo not drawn): the TGI in assay [1], in assay [2], in assay [3], in assay [4], in [5] and in assay [6] was > 100 µM each time. Besides, the TGI in [7], in assay [8], in assay [9], in assay [10], in assay [11] and in assay [12] was > 100 µM each time. The TGI in assay [13], in assay [15], in [16], in [17] and in assay [18] was > 100 µM each time.
Turning to `O=c1[nH]c2ccc(C(F)(F)F)cc2nc1-c1ccccc1`, the TGI in assay [1], in assay [2], in assay [3], in [4], in assay [5] and in [6] was > 100 µM throughout. For the same compound, the TGI in assay [7], in assay [8], in assay [9], in assay [10], in assay [11] and in [12] was > 100 µM each time. Further, the TGI in assay [13], in assay [19], in assay [15], in assay [16], in assay [17] and in [18] was > 100 µM in each case.
On to `CC1C(c2ccc(F)cc2)c2cc3c(cc2OC1N1CCCC1)OCO3` (stereo not drawn), for which the TGI was > 100 µM in assay [1]; > 100 µM in assay [2]; 58.4 µM in assay [3]; > 100 µM in [4]; > 100 µM in assay [5]; 45.7 µM in assay [6]. The TGI in assay [7], in assay [8], in assay [9], in assay [12], in assay [19] and in [15] was > 100 µM in each case. In addition, the TGI in assay [16], in [17] and in [18] was > 100 µM each time.
For `CC(=O)N=C(N=Nc1c(O)[nH]c2ccc(C)cc12)NC(C)=O`, the TGI in assay [1], in assay [2], in assay [3], in [4], in [5] and in [6] was > 100 µM each time. For the same compound, the TGI in assay [7], in [8], in assay [9], in [10], in assay [11] and in [12] was > 100 µM each time. Also, the TGI in assay [13], in assay [14], in assay [15], in [16], in assay [17] and in [18] was > 100 µM each time.
Turning to `O=C(O)CC(C(=O)O)c1ccccc1[N+](=O)[O-]` (stereo not drawn), the TGI in assay [1], in assay [2], in [3], in [4], in assay [5] and in [6] was > 100 µM each time. The TGI in [7], in [8], in [9], in [11], in assay [12] and in assay [13] was > 100 µM each time. The TGI in assay [14], in [15], in assay [16], in assay [17] and in [18] was > 100 µM throughout.
`NCc1ccc(-c2ccc(-c3ccc(-c4ccc(CN)s4)s3)s2)s1`: the TGI in assay [1], in [2], in assay [3], in assay [4], in [5] and in assay [6] was > 100 µM throughout. Further, the TGI in assay [7], in [8], in assay [9], in [10], in assay [12] and in assay [13] was > 100 µM in each case. Moreover, the TGI in assay [19], in assay [14], in [15], in assay [16], in [17] and in [18] was > 100 µM in each case.
With `CSc1ccc2c(cc1=O)[C@@H](NC(C)=O)CCc1cc(O)c(O)c(O)c1-2`, the TGI in [1] was 32.4 µM; in assay [2], 46.8 µM; in assay [3], > 100 µM; in assay [4], > 100 µM; in [5], 50.5 µM; in assay [6], 70.6 µM. Further, the TGI is 32.4 µM in [7]; 19.8 µM in assay [8]; 29.9 µM in assay [9]; > 100 µM in [10]; 36.2 µM in assay [11]; 58.3 µM in assay [12]. Further, the TGI was > 100 µM in assay [13]; > 100 µM in [14]; 78.9 µM in assay [15]; > 100 µM in [16]; > 100 µM in [17]; > 100 µM in assay [18].
For the compound `CCOC(=O)C1(C(=O)OCC)C[C@]23OCCC(=O)[C@H]2[C@H]2C(=O)OC(C)(C)O[C@]23C1`, the TGI in assay [1], in [2], in assay [3], in [4], in [5] and in assay [6] was > 100 µM each time. Besides, the TGI in [7], in assay [8], in assay [9], in [10], in [11] and in assay [12] was > 100 µM throughout. In addition, the TGI in [19], in [15], in assay [16], in assay [17] and in assay [18] was > 100 µM each time.
Consider `CC(C)(C)OC(=O)[N+](=N)C(=O)C1CCC(=O)N1C(=O)OCc1ccccc1` (stereo not drawn), for which the TGI in assay [1], in assay [2], in assay [3], in assay [4], in [5] and in assay [6] was > 100 µM throughout. In addition, the TGI in [7], in [8], in assay [9], in [10], in [11] and in assay [12] was > 100 µM in each case. Moreover, the TGI in [13], in assay [14], in assay [15], in assay [16] and in assay [17] was > 100 µM each time.
Take `CCOC(=O)CN1CCNCCN(CC(=O)OCC)CCNCC1`: the TGI in assay [1], in assay [2], in assay [3], in assay [4], in assay [5] and in [6] was > 100 µM each time. The TGI in assay [7], in assay [8], in assay [9], in assay [10], in assay [11] and in assay [12] was > 100 µM in each case. The TGI in [13], in [19], in [14], in assay [15], in assay [17] and in assay [18] was > 100 µM in each case.
For the compound `O=c1c(O)c(-c2ccc(O)cc2O)oc2cc(O)cc(O)c12`, the TGI in assay [1], in assay [2], in [3], in [4], in assay [5] and in assay [6] was > 100 µM throughout. In addition, the TGI in assay [7], in assay [8], in [9], in [11], in assay [12] and in [19] was > 100 µM each time. The TGI in assay [15], in assay [16], in assay [17] and in [18] was > 100 µM throughout.
Consider `CN(C)CCCNc1c(O)c2c(c(O)c1Cl)C(=O)C=CC2=O`, for which the TGI in assay [1] is 3.25 µM; in assay [2], > 10 µM; in assay [3] it was > 10 µM; in assay [4], > 10 µM; in assay [5], 3.22 µM; in [6], > 10 µM. The TGI in [7] stood at 3.45 µM; in assay [8] it was 3.22 µM; in assay [9] it was 4.33 µM; in assay [10], 5.04 µM; in assay [11], 3.81 µM; in assay [12] it was 5.38 µM. In addition, the TGI is 3.22 µM in [19]; > 10 µM in assay [14]; 4.67 µM in assay [15]; 3.39 µM in assay [16]; 4.28 µM in assay [17]; 3.71 µM in assay [18].
With `O=C(NN=C1CCN(Cc2ccccc2)CC1)C(O)(c1ccccc1)c1ccccc1`, the TGI in assay [1], in assay [4], in [5], in assay [6], in assay [7] and in [8] was > 100 µM throughout. Besides, the TGI in assay [9], in assay [10], in [12], in [13], in assay [19] and in [14] was > 100 µM in each case. For the same compound, the TGI in assay [15], in assay [16], in assay [17] and in assay [18] was > 100 µM in each case.
As to `CNC(=S)/C(=N\Nc1nc[nH]c1C(N)=O)C(N)=S`, the TGI was > 100 µM in assay [1]; 61.8 µM in assay [2]; > 94.4 µM in assay [3]; > 100 µM in assay [4]; 22.8 µM in assay [5]; 99.4 µM in assay [6]. Also, the TGI was > 61 µM in assay [7]; > 100 µM in assay [8]; > 100 µM in [9]; > 100 µM in assay [11]; > 64.5 µM in assay [12]; > 100 µM in assay [13]. The TGI in assay [19] is > 81.3 µM; in [14], > 31.6 µM; in assay [15], > 100 µM; in assay [16] it was > 92 µM; in [17], > 89.3 µM; in assay [18] it was > 100 µM.

(Values after PubChem BioAssay (NCI).)
